In the supplement of paper PMC6045584:
± gives the standard deviation of the averaged measurements.

Experiments:
[1] = compound: CCN(CC)CCCCNc1ncc2cc(-c3cc(OC)cc(OC)c3)c(NC(=O)NC(C)(C)C)nc2n1; test: surviving fraction relative to DMSO-only wells; higher = less growth inhibition; conditions: exposure time: 5 days
Outline: (§1)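 Continuous five-day exposure to inhibitors at 0.5, 1, 5, 10, 50, 100, 500 and 1000 nM started 24 hours after log-phase tumour cell lines were seeded at 250–500 cells per well in 384-well plates. Luminescence was read after 10 minutes at room temperature. Viability is given as surviving fraction, meaning CellTiter-Glo luminescence normalised to the median of DMSO-only wells.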

2-METHOXYESTRADIOL = compound: COc1cc2c(cc1O)CC[C@@H]1[C@@H]2CC[C@]2(C)[C@@H](O)CC[C@@H]12 [2-METHOXYESTRADIOL]; test: as above; conditions: exposure time: 5 days
Outline: as §1

## CADOES1 SOFT TISSUE
[1]; 0.5 nM
  surviving fraction: 0.942 ± 0.1
[1]; 1 nM
  surviving fraction: 0.905 ± 0.1
[1]; 5 nM
  surviving fraction: 0.935 ± 0.21
[1]; 10 nM
  surviving fraction: 0.913 ± 0.071
[1]; 50 nM
  surviving fraction: 0.895 ± 0.076
[1]; 100 nM
  surviving fraction: 0.9 ± 0.036
[1]; 500 nM
  surviving fraction: 0.901 ± 0.056
[1]; 1000 nM
  surviving fraction: 1.05 ± 0.043
2-METHOXYESTRADIOL; 0.5 nM
  surviving fraction: 0.795 ± 0.055
2-METHOXYESTRADIOL; 1 nM
  surviving fraction: 0.875 ± 0.099
2-METHOXYESTRADIOL; 5 nM
  surviving fraction: 0.846 ± 0.11
2-METHOXYESTRADIOL; 10 nM
  surviving fraction: 0.894 ± 0.18
2-METHOXYESTRADIOL; 50 nM
  surviving fraction: 0.886 ± 0.047
2-METHOXYESTRADIOL; 100 nM
  surviving fraction: 0.867 ± 0.15
2-METHOXYESTRADIOL; 500 nM
  surviving fraction: 0.964 ± 0.062
2-METHOXYESTRADIOL; 1000 nM
  surviving fraction: 0.358 ± 0.098

## NOS1 BONE
[1]; 0.5 nM
  surviving fraction: 1.11 ± 0.046
[1]; 1 nM
  surviving fraction: 1.19 ± 0.1
[1]; 5 nM
  surviving fraction: 1.15 ± 0.094
[1]; 10 nM
  surviving fraction: 1.08 ± 0.056
[1]; 50 nM
  surviving fraction: 0.989 ± 0.16
[1]; 100 nM
  surviving fraction: 0.965 ± 0.11
[1]; 500 nM
  surviving fraction: 0.609 ± 0.046
[1]; 1000 nM
  surviving fraction: 0.37 ± 0.05
2-METHOXYESTRADIOL; 0.5 nM
  surviving fraction: 1.19 ± 0.077
2-METHOXYESTRADIOL; 1 nM
  surviving fraction: 1.15 ± 0.063
2-METHOXYESTRADIOL; 5 nM
  surviving fraction: 1.27 ± 0.18
2-METHOXYESTRADIOL; 10 nM
  surviving fraction: 1.28 ± 0.14
2-METHOXYESTRADIOL; 50 nM
  surviving fraction: 1.13 ± 0.23
2-METHOXYESTRADIOL; 100 nM
  surviving fraction: 1.22 ± 0.097
2-METHOXYESTRADIOL; 500 nM
  surviving fraction: 0.981 ± 0.055
2-METHOXYESTRADIOL; 1000 nM
  surviving fraction: 0.438 ± 0.036

## MDAMB231 BREAST
[1]; 0.5 nM
  surviving fraction: 0.974 ± 0.03
[1]; 1 nM
  surviving fraction: 0.975 ± 0.026
[1]; 5 nM
  surviving fraction: 0.9813 ± 0.0094
[1]; 10 nM
  surviving fraction: 1.01 ± 0.02
[1]; 50 nM
  surviving fraction: 0.995 ± 0.026
[1]; 100 nM
  surviving fraction: 1.01 ± 0.034
[1]; 500 nM
  surviving fraction: 1.01 ± 0.035
[1]; 1000 nM
  surviving fraction: 0.983 ± 0.022
2-METHOXYESTRADIOL; 0.5 nM
  surviving fraction: 0.964 ± 0.0098
2-METHOXYESTRADIOL; 1 nM
  surviving fraction: 0.949 ± 0.011
2-METHOXYESTRADIOL; 5 nM
  surviving fraction: 0.9675 ± 0.0069
2-METHOXYESTRADIOL; 10 nM
  surviving fraction: 0.963 ± 0.018
2-METHOXYESTRADIOL; 50 nM
  surviving fraction: 0.983 ± 0.027
2-METHOXYESTRADIOL; 100 nM
  surviving fraction: 0.989 ± 0.027
2-METHOXYESTRADIOL; 500 nM
  surviving fraction: 0.545 ± 0.025
2-METHOXYESTRADIOL; 1000 nM
  surviving fraction: 0.258 ± 0.012

## HSSYII SYNOVIAL
[1]; 0.5 nM
  surviving fraction: 0.799 ± 0.027
[1]; 1 nM
  surviving fraction: 0.9 ± 0.044
[1]; 5 nM
  surviving fraction: 0.886 ± 0.029
[1]; 10 nM
  surviving fraction: 0.784 ± 0.05
[1]; 50 nM
  surviving fraction: 0.475 ± 0.013
[1]; 100 nM
  surviving fraction: 0.402 ± 0.007
[1]; 500 nM
  surviving fraction: 0.274 ± 0.005
[1]; 1000 nM
  surviving fraction: 0.26 ± 0.0082
2-METHOXYESTRADIOL; 0.5 nM
  surviving fraction: 0.901 ± 0.024
2-METHOXYESTRADIOL; 1 nM
  surviving fraction: 0.926 ± 0.01
2-METHOXYESTRADIOL; 5 nM
  surviving fraction: 0.923 ± 0.043
2-METHOXYESTRADIOL; 10 nM
  surviving fraction: 0.997 ± 0.046
2-METHOXYESTRADIOL; 50 nM
  surviving fraction: 0.915 ± 0.018
2-METHOXYESTRADIOL; 100 nM
  surviving fraction: 0.764 ± 0.013
2-METHOXYESTRADIOL; 500 nM
  surviving fraction: 0.139 ± 0.0043
2-METHOXYESTRADIOL; 1000 nM
  surviving fraction: 0.0593 ± 0.0049

## S68 BREAST
[1]; 0.5 nM
  surviving fraction: 0.948 ± 0.29
[1]; 1 nM
  surviving fraction: 1.01 ± 0.22
[1]; 5 nM
  surviving fraction: 1.285 ± 0.0036
[1]; 10 nM
  surviving fraction: 0.836 ± 0.1
[1]; 50 nM
  surviving fraction: 1.02 ± 0.06
[1]; 100 nM
  surviving fraction: 1.11 ± 0.3
[1]; 500 nM
  surviving fraction: 0.864 ± 0.18
[1]; 1000 nM
  surviving fraction: 0.81 ± 0.22
2-METHOXYESTRADIOL; 0.5 nM
  surviving fraction: 0.845 ± 0.17
2-METHOXYESTRADIOL; 1 nM
  surviving fraction: 0.812 ± 0.15
2-METHOXYESTRADIOL; 5 nM
  surviving fraction: 0.879 ± 0.13
2-METHOXYESTRADIOL; 10 nM
  surviving fraction: 1.16 ± 0.3
2-METHOXYESTRADIOL; 50 nM
  surviving fraction: 1.24 ± 0.23
2-METHOXYESTRADIOL; 100 nM
  surviving fraction: 0.985 ± 0.067
2-METHOXYESTRADIOL; 500 nM
  surviving fraction: 0.617 ± 0.036
2-METHOXYESTRADIOL; 1000 nM
  surviving fraction: 0.325 ± 0.017
